The record followed here is article PMC7178874, “The antibiotic furagin and its derivatives are isoform-selective human carbonic anhydrase inhibitors” (Journal of Enzyme Inhibition and Medicinal Chemistry, 2020).

What all share (experiment): stopped-flow CO2 hydration assay
Holding throughout (format): biochemical

For one assay, the target named is T1, hCA I (Homo sapiens, UniProt P00915).
T1 construct: gene CA1; recombinant, obtained in-house
The following applies: read-out: KI (nM)* / CA I (converted). The text has this: stopped-flow CO2 hydration assay on hCA I

In another assay the target is T2, hCA II (Homo sapiens, UniProt P00918).
T2 construct: gene CA2; recombinant, obtained in-house
The settings on record: read-out: KI (nM)* / CA II (converted). The source says: stopped-flow CO2 hydration assay on hCA II

The next assay addresses T3, hCA XII (Homo sapiens, UniProt O43570).
T3 construct: gene CA12; recombinant, obtained in-house
The following applies: read-out: KI (nM)* / CA XII. The source says:
stopped-flow CO2 hydration assay on hCA XII

A further assay addresses T4, hCA IX (Homo sapiens, UniProt Q16790).
T4 construct: gene CA9; recombinant, obtained in-house
The settings on record: read-out: KI (nM)* / CA IX. The text has this: stopped-flow CO2 hydration assay on hCA IX

T3 sequence (O43570 25-354 limits assumed): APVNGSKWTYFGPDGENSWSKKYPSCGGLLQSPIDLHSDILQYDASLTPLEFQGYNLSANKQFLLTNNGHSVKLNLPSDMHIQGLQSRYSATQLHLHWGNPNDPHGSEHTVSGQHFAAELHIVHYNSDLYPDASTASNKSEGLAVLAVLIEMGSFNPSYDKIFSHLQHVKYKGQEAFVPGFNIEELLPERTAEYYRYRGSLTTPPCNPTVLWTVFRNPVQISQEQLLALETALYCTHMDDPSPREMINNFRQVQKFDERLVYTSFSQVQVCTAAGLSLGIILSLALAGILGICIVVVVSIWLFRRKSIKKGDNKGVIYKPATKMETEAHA
T1 sequence (P00915 2-261): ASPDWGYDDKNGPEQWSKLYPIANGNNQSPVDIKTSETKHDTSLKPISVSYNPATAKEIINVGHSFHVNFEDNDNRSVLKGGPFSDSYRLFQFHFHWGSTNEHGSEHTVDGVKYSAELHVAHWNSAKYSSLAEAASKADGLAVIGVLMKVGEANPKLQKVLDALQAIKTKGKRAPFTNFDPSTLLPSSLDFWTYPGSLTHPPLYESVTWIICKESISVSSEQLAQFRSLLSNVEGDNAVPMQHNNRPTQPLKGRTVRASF

As to `O=C1CN(/N=C/C=C/c2ccc([N+](=O)[O-])o2)C(=O)N1` [Furagin], the Ki on hCA I is more than 100000 nM; on hCA II, 9600 nM; at hCA XII it was 57 nM; at hCA IX it was 260 nM.

`O=C1CN(N=Cc2ccccc2)C(=O)N1` [compound 2, 1-(Benzylideneamino)-imidazolidine-2,4-dione]: the Ki on hCA I was 39600 nM; at hCA II it was 900 nM; on hCA XII, 5600 nM; on hCA IX it was 3500 nM.

`COc1ccc(C=NN2CC(=O)NC2=O)cc1` [compound 3, 1-((4-Methoxybenzylidene)amino)imidazolidine-2,4-dione]: the Ki is 57600 nM on hCA I, 6400 nM at hCA II, 4700 nM on hCA XII and 1200 nM at hCA IX.

Take `O=C1CN(N=Cc2ccc([N+](=O)[O-])cc2)C(=O)N1` [compound 4, 1-((4-Nitrobenzylidene)amino)imidazolidine-2,4-dione]: the Ki on hCA I is more than 100000 nM; at hCA II it was 11100 nM; at hCA XII, 2800 nM; on hCA IX it was 7400 nM.

Consider `COC(=O)c1ccc(C=NN2CC(=O)NC2=O)cc1` [compound 5, Methyl 4-(((2,4-dioxoimidazolidin-1-yl)imino)methyl)benzoate], for which the Ki on hCA I was more than 100000 nM; at hCA II, 8300 nM; on hCA XII, 930 nM; at hCA IX, 4900 nM.

As for `O=C1CN(N=CCCCC=NN2CC(=O)NC2=O)C(=O)N1` [compound 6, 1,1’-((Pentane-1,5-diylidene)bis(azaneylylidene))bis(imidazolidine-2,4-dione)], the Ki is 19100 nM at hCA I, 4000 nM on hCA II, 160 nM on hCA XII and 1100 nM on hCA IX.

For the compound `O=C1CN(N=Cc2ccoc2)C(=O)N1` [compound 7, 1-((Furan-3-ylmethylene)amino)imidazolidine-2,4-dione], the Ki was 16800 nM at hCA I, 710 nM at hCA II, 1700 nM on hCA XII and 850 nM at hCA IX.

With `O=C1CN(N=Cc2ccc(OCc3ccccc3)cc2)C(=O)N1` [compound 8, 1-((4-(Benzyloxy)benzylidene)amino)imidazolidine-2,4-dione], the Ki is more than 100000 nM at hCA I, 540 nM on hCA II, 910 nM at hCA XII and 350 nM at hCA IX.

Turning to `CCOC(=O)/C=C/C=NN1CC(=O)NC1=O` [compound 9, Ethyl (2E)-4-((2,4-dioxoimidazolidin-1-yl)imino)but-2-enoate], the Ki on hCA I is 45900 nM; at hCA II, 23600 nM; on hCA XII, 440 nM; on hCA IX, 810 nM.

For `CC(C)=CC=NN1CC(=O)NC1=O` [compound 10, 1-((3-Methylbut-2-en-1-ylidene)amino)imidazolidine-2,4-dione], the Ki on hCA I is 28800 nM; on hCA II, 16500 nM; on hCA XII, 880 nM; at hCA IX it was 2900 nM.

Turning to `COc1ccc(/C=C/C=NN2CC(=O)NC2=O)cc1` [compound 11, 1-(((2e)-3–(4-methoxyphenyl)allylidene)amino)imidazolidine-2,4-dione], the Ki on hCA I was more than 100000 nM; on hCA II, 3100 nM; on hCA XII, 360 nM; on hCA IX, 400 nM.

Turning to `O=C1CN(N=Cc2ccc(O)cc2O)C(=O)N1` [compound 12, 1-((2,4-Dihydroxybenzylidene)amino)imidazolidine-2,4-dione], the Ki was more than 100000 nM on hCA I, 59900 nM at hCA II, 150 nM at hCA XII and 5800 nM on hCA IX.

With `O=C1CN(N=Cc2ccc(B(O)O)cc2)C(=O)N1` [compound 13], the Ki on hCA I is 90700 nM; on hCA II it was 14200 nM; on hCA XII it was 230 nM; on hCA IX, 7300 nM.

`O=C1CN(N=Cc2ccccn2)C(=O)N1` [compound 14, 1-((Pyridin-2-ylmethylene)amino)imidazolidine-2,4-dione]: the Ki on hCA I is 51800 nM; on hCA II, 4200 nM; at hCA XII, 1300 nM; at hCA IX it was 4500 nM.

On to `O=C1CN(N=Cc2cccnc2)C(=O)N1` [compound 15, 1-((Pyridin-3-ylmethylene)amino)imidazolidine-2,4-dione], for which the Ki on hCA I is 45600 nM; at hCA II, 620 nM; at hCA XII, 3200 nM; on hCA IX, 2300 nM.

Turning to `O=C1CN(N=Cc2ccncc2)C(=O)N1` [compound 16, 1-((Pyridin-4-ylmethylene)amino)imidazolidine-2,4-dione], the Ki at hCA I is 26600 nM; on hCA II, 3300 nM; at hCA XII, 810 nM; on hCA IX it was 1600 nM.

As to `O=C1CN(N=Cc2cnc[nH]2)C(=O)N1` [compound 17, 1-(((1 h-Imidazol-5-yl)methylene)amino)imidazolidine-2,4-dione], the Ki on hCA I is 9600 nM; at hCA II, 12400 nM; at hCA XII, 350 nM; on hCA IX, 560 nM.
